Measured values as given in patent US20250002955A1, “Method for Promoting Production of Exopolysaccharide by Bifidobacterium Bacteria” (TOHOKU UNIVERSITY, priority 2021, published 2025).

Columns and labels:
Format in all cases: cell-based
[1] = test system: Bifidobacterium animalis subsp. lactis JCM10602 strain; test: Induction of EPS production by L-fucose in JCM10602 strain; settings: anaerobic, 37° C.; for amount of EPS produced, extracted with ethanol / amount of EPS produced, extracted with trichloracetic acid: 0.5% sugar in mMRS culture medium, 96 hours, culture supernatant
Experimental: In order to confirm whether the production of EPS is induced by L-fucose in other bacteria of the genus Bifidobacterium, the following test was carried out using the JCM10602 strain and the JCM1192 strain.
(§1) Note that the JCM10602 strain is Bifidobacterium animalis subsp. lactis (i.e., Bifidobacterium lactis), which is frequently used as a probiotic and is known to produce EPS at a high level, and the JCM1192 strain is a standard strain of Bifidobacterium breve, which is the same species as AT-APC-FucE1.
The JCM10602 strain was anaerobically cultured in a 0.5% Fuc mMRS culture medium and in a 0.5% Glu mMRS culture medium at 37° C. for 96 hours by the method described in Test 3 above.
When the EPS extracted from the culture supernatant was assayed, the amount of EPS produced in the culture medium using D-glucose (that is, the 0.5% Glu mMRS culture medium) was 132.97 mg/1000 mL (when extracted with trichloracetic acid) and 4.74 mg/1000 mL (when extracted with ethanol), whereas the amount of EPS produced in the culture medium using L-fucose (that is, the 0.5% Fuc mMRS culture medium) was 166.2 mg/1000 mL (when extracted with trichloracetic acid) and 13.33 mg/1000 mL (when extracted with ethanol).

[2] = test system: Bifidobacterium breve AT-APC-FucE1 strain; test: Influence of presence or absence of L-fucose in culture medium on EPS production amount by AT-APC-FucE1 strain; settings: 0.5% sugar in mMRS culture medium, anaerobic, 37° C., 96 hours
Experimental: The 0.5% Glu mMRS culture medium was inoculated with the AT-APC-FucE1 strain, and pre-culturing was implemented anaerobically at 37° C. for 24 hours. An amount of 100 μL of the pre-cultured culture solution was inoculated into each of a 0.5% Fuc mMRS culture medium (mMRS liquid culture medium comprising 0.5 wt. % of L-fucose) and a 0.5% Glu mMRS culture medium, and then cultured anaerobically at 37° C. for 96 hours.
The amount of crude EPS extracted from the supernatant of each culture solution was approximately the same (13.33 mg/1000 mL). However, when the amount of protein in these crude EPS samples was measured, and the amount of protein was subtracted from the amount of crude EPS, the amount of EPS produced in the culture medium that used D-glucose (that is, the 0.5% Glu mMRS culture medium) was 9.34 mg/1000 mL, whereas the amount of EPS produced in the culture medium that used L-fucose (that is, the 0.5% Fuc mMRS culture medium) was 13.14 mg/1000 mL.

[3] = test system: Bifidobacterium breve JCM1192 strain; test: Induction of EPS production by L-fucose in JCM1192 strain; settings: JCM1192, standard strain of Bifidobacterium breve
Experimental: as §1, with “In order to confirm whether the production of EPS is induced by L-fucose in other bacteria of the genus Bifidobacterium, the following test was carried out using the JCM10602 strain and the JCM1192 strain. Note” for “Note”

[4] = test system: Bifidobacterium breve AT-APC-FucE1 strain; test: Confirmation of EPS production through culturing of AT-APC-FucE1 strain (transmission electron microscope); settings: 1% Fuc mMRS culture medium vs 1% Glu mMRS culture medium, anaerobic, 37° C., 12 hours, transmission electron microscope (FIGS. 4 and 5)
From the text: An mMRS liquid culture medium comprising 0.5 wt. % and an mMRS liquid culture medium comprising 1 wt. % of D-glucose (hereinafter, the respective mMRS liquid culture mediums are also referred to as a “0.5% Glu mMRS culture medium” and a “1% Glu mMRS culture medium”, respectively) (composition: 10 g/L of beef extract, 5 g/L of yeast extract, 2 g/L of ammonium citrate, 5 g/L of sodium acetate, 0.1 g/L of magnesium sulfate, 0.05 g/L of manganese sulfate, 2 g/L of dipotassium hydrogen phosphate, 0.5 g/L of L-cysteine hydrochloride, and 0.5% or 1% D-glucose) were prepared. The 0.5% Glu mMRS culture medium was inoculated with the AT-APC-FucE1 strain, and pre-culturing was implemented anaerobically at 37° C. for 24 hours.
The 1% Fuc mMRS culture medium was then inoculated with 100 μL of the pre-cultured culture solution, and anaerobic culturing was carried out at 37° C. The AT-APC-FucE1 strain was collected from the culture solution that had been cultured for 12 hours, after which the bacterial cells were washed with phosphate-buffered saline (PBS), and subsequently, the bacterial cells were immobilized on a membrane, and the EPS production by the bacterial cells was confirmed using a transmission electron microscope. […]

Compound | amount of EPS produced, extracted with ethanol [1] [mg/1000 mL] | amount of EPS produced, extracted with trichloracetic acid [1] [mg/1000 mL] | amount of EPS produced (amount of protein subtracted from amount of crude EPS) [2] [mg/1000 mL] | amount of crude EPS extracted from the supernatant of culture solution [2] [mg/1000 mL] | production of EPS (electron microscope observation) ([1]; 0.5% Fuc mMRS vs 0.5% Glu mMRS culture medium, 96 hours (FIG. 7)) | induction of EPS production [3] | EPS production by the bacterial cells [4]
O=C[C@H](O)[C@@H](O)[C@H](O)[C@H](O)CO [D-glucose, reference compound] | 4.74 | 132.97 | 9.34 | ~13.33 |  |  | 
C[C@H](O)[C@@H](O)[C@@H](O)[C@H](O)C=O [L-fucose] | 13.33 | 166.2 | 13.14 | ~13.33 | improved | significant production induction by L-fucose was not confirmed | remarkably promoted
